Source: a compilation of properties of binary mixtures (doi:10.1021/acs.jced.0c00495)

Assay: xn = mol fraction of the nth substance listed
Conditions: 101.3 kPa

CCCCCCCCn1cc[n+](C)c1.F[B-](F)(F)F + Nc1ccccc1
speed of sound [m/s]
Conditions	x1 = 0.0996	x1 = 0.1904	x1 = 0.2853	x1 = 0.3789	x1 = 0.4955	x1 = 0.5783	x1 = 0.6966	x1 = 0.7938	x1 = 0.8958
293.15 K	1640	1619	1595	1574	1553	1540	1526	1516	–
298.15 K	–	–	1580	1560	1539	1526	1512	–	1494
303.15 K	–	–	1564	1545	1525	1513	1499	1488	–
308.15 K	1589	–	1549	1530	1511	–	1485	1476	1467
313.15 K	–	1554	1534	–	1496	1485	1472	1463	1454
318.15 K	1554	1538	1518	–	1483	1472	1459	1450	1441
323.15 K	–	–	1502	1486	1469	1458	1446	–	1429

CCCCCC[n+]1ccn(C)c1.F[B-](F)(F)F + Nc1ccccc1
speed of sound [m/s]
Conditions	x1 = 0.0989	x1 = 0.1792	x1 = 0.2896	x1 = 0.3924	x1 = 0.5062	x1 = 0.6042	x1 = 0.6986	x1 = 0.7974	x1 = 0.8962
293.15 K	1653	–	1618	1598	1579	1565	–	–	1539
298.15 K	1636	1623	1603	1583	–	–	1541	1532	1526
303.15 K	–	1606	1586	1568	1550	1537	–	1520	1513
308.15 K	1601	1589	1571	1553	1536	1524	1515	1507	1501
313.15 K	–	1572	1555	1539	1522	1510	1502	1494	1489
318.15 K	1565	1556	1540	1525	1509	–	–	1482	1476
323.15 K	1547	–	1525	–	1496	1485	1477	1470	1464
